Values of other authors, collected in PMC11387175, “Model informed dose regimen optimizing in development of leritrelvir for the treatment of mild or moderate COVID-19” (Frontiers in Pharmacology, 2024).
Where two headings read alike, the source gives them in different places.

Tested on: Delta variant
Set-up: method as in Chen et al., 2023
Settings: ref Chen et al., 2023, cited from earlier work

For `O=C(NC1CCCC1)C(=O)[C@H](C[C@@H]1CCNC1=O)NC(=O)[C@@H]1[C@H]2CCC[C@H]2CN1C(=O)[C@@H](NC(=O)C(F)(F)F)C1CCCCC1` [leritrelvir], the inhibition rate (300 mg/kg) is given as 42.86%, the inhibition rate (600 mg/kg) is given as 100% and the lung pathology is given as “favorable enhancements”. For the same molecule, the “viral titers in the lungs of mice after infection” value was “significantly reduced”.
